Assay results as given in EP2052721A1, “Use of carnosol for cartilage repair” (DSM IP Assets B.V., priority 2007, dated 2009).
Entries after “also recorded” stand apart in the source; their conditions may differ. Like-named read-outs stand apart in the source and are kept apart here.

What was measured:
Collagen II [1] = assay: Cellular collagen II production in chondrocytes, ELISA; format: cell-based, human; conditions: 20 µmol/L carnosol; for Effect of carnosol on protein expression: 10 days of culture, collagen II, result in words
Procedure: The increased build-up of the ECM has been directly shown by measuring the production of collagen II. To this aim, chondrocytes were cultured in differentiation medium containing 20 µmol/L carnosol for 10 days. Cellular collagen II was then quantified by enzyme linked immunosorbent assay (ELISA). […]

Collagen II [2] = assay: Anabolic gene expression in normal human primary chondrocytes, quantitative real-time PCR (collagen II); format: cell-based; conditions: carnosol at 1 µmol/L; for activity at 1 µM: Chondrocyte, normal human chondrocytes (knee), differentiation medium
Procedure: (§1) Influence of carnosol on the expression of genes involved in the build-up and break-down of cartilage. Carnosol of >= 95% purity prepared as disclosed in example 1 was used.
(§2) The effect of carnosol on the expression of human collagen, aggrecan and MMP genes was measured in vitro in normal human chondrocytes (derived from knee). Control experiments without carnosol were done concomitantly to compare the expression of these genes or proteins to that in un-stimulated cells. The effect of carnosol (at 1 µmol/L) on the expression of anabolic genes (see Table B) was measured in normal human chondrocytes obtained from the knee of healthy donors (HNAC-kn, Cambrex, #CC2250). These primary chondrocytes were passaged in vitro not more than 4 times, before being used for experiments. Cells were cultured in differentiation medium (Cambrex, #CC.3225) for 5 - 10 days. Total RNA was extracted from cultured cells and reverse-transcribed; expression levels of distinct genes were determined by quantitative real-time PCR as detailed by Richard et al. Mol. Nutr. Food Res. 49, 431-442, (2005).
(§3) Effect of carnosol on anabolic gene expression in normal human primary chondrocytes Numbers indicate the level of gene expression (in % of control-treated cells)

Aggrecan = assay: Anabolic gene expression in normal human primary chondrocytes, quantitative real-time PCR (aggrecan); format: cell-based; conditions: carnosol at 1 µmol/L; for activity at 1 µM: Chondrocyte, normal human chondrocytes (knee), differentiation medium
Procedure: as §1, §2, §3

SOX-9 = assay: Anabolic gene expression in normal human primary chondrocytes, quantitative real-time PCR (SOX-9); format: cell-based; conditions: carnosol at 1 µmol/L
Procedure: as §1, §2, §3

Collagen I = assay: Anabolic gene expression in normal human primary chondrocytes, quantitative real-time PCR (collagen I); format: cell-based; conditions: carnosol at 1 µmol/L; for activity at 1 µM: Chondrocyte, normal human chondrocytes (knee), differentiation medium
Procedure: as §1, §2, §3

SOX-5 = assay: Anabolic gene expression in normal human primary chondrocytes, quantitative real-time PCR (SOX-5); format: cell-based; conditions: carnosol at 1 µmol/L; for activity at 1 µM: Chondrocyte, normal human chondrocytes (knee), differentiation medium
Procedure: as §1, §2, §3

[3] = normal human chondrocytes, result in words

In the case of `CC(C)c1cc2c(c(O)c1O)[C@@]13CCCC(C)(C)[C@@H]1C[C@@H]2OC3=O` [Carnosol, 2H-9,4a-(Epoxymethano)phenanthren-12-one], the “Effect of carnosol on protein expression” value (Collagen II [1]) was “Increased”, the “Effect of carnosol on protein expression” value (Collagen II [1]; listed as carnosol) was “significantly increased” and the activity at 20 µM (Collagen II [1]; Homo sapiens, Chondrocyte, 240 h, 10 days of culture in differentiation medium, cellular collagen II by ELISA, vehicle = 100) was 129%. For the same molecule, the activity at 1 µM (Collagen II [2]; 120 h, 5 days culture, read-out: level of gene expression, Collagen II, 5 days culture) was 128%, the activity at 1 µM (Collagen II [2]; 240 h, 10 days culture, read-out: level of gene expression, Collagen II, 10 days culture) was 189% and the “effect of carnosol on gene expression, Collagen II” value (Collagen II [2]; [3]) was “substantially increased”. For the same molecule, the activity at 1 µM (Aggrecan; 120 h, 5 days culture, read-out: level of gene expression, Aggrecan, 5 days culture) was 139%, the activity at 1 µM (Aggrecan; 240 h, 10 days culture, read-out: level of gene expression, Aggrecan, 10 days culture) was 97% and the “effect of carnosol on gene expression, Aggrecan” value (Aggrecan; [3]) was “substantially increased”. For the same molecule, the mrna remaining at 1 µM (SOX-9; Chondrocyte, 120 h, normal human chondrocytes (knee), differentiation medium, 5 days culture, read-out: level of gene expression, SOX-9, 5 days culture) was 112%, the SOX-9 gene expression, % of control at 1 µM (SOX-9; Chondrocyte, 240 h, normal human chondrocytes (knee), differentiation medium, 10 days culture, read-out: level of gene expression, SOX-9, 10 days culture) was 93% and the “effect of carnosol on gene expression, SOX-9” value (SOX-9; [3]) was “enhanced; also recorded: Increased”. The activity at 1 µM (Collagen I; 120 h, 5 days culture, read-out: level of gene expression, Collagen I, 5 days culture) was 207%, the activity at 1 µM (Collagen I; 240 h, 10 days culture, read-out: level of gene expression, Collagen I, 10 days culture) was 98% and the “effect of carnosol on gene expression, Collagen I” value (Collagen I; [3]) was “Increased”. For the same molecule, the activity at 1 µM (SOX-5; 120 h, 5 days culture, read-out: level of gene expression, SOX-5, 5 days culture) was 85%, the activity at 1 µM (SOX-5; 240 h, 10 days culture, read-out: level of gene expression, SOX-5, 10 days culture) was 126% and the “effect of carnosol on gene expression, SOX-5” value (SOX-5; [3]) was “enhanced; also recorded: Increased”.
